In paper PMC7380166, “How to Study the Metabolism of New Psychoactive Substances for the Purpose of Toxicological Screenings—A Follow-Up Study Comparing Pooled Human Liver S9, HepaRG Cells, and Zebrafish Larvae” (Frontiers in Chemistry, 2020):

Key:
HepaRG cells = assay: Incubations with HepaRG cells, metabolite identification by LC-HRMS/MS; type: in vitro ADME, human; settings: for Absolute peak area, HepaRG [25 μM]: 25 μM parent NPS; for Absolute peak area, HepaRG [25 μM] / Absolute peak area, HepaRG [250 μM]: cell culture medium, one replicate of n = 3, n.d. = not detected; for Absolute peak area, HepaRG [250 μM]: 250 μM parent NPS
CYP2B6 = biological target: T1, CYP2B6 (Homo sapiens, UniProt P20813); assay: Monooxygenases activity screening, CYP2B6; type: in vitro ADME; parameters: key: +, detected; –: −, not detected; settings: 25 μM 4F-MDMB-BINACA, 50 pmol/ml enzyme, 30 min, 37°C, duplicate
T1 construct: purchased Corning; host or cells: baculovirus-transfected insect cell microsomes (Supersomes)
T1 sequence (P20813 1-491): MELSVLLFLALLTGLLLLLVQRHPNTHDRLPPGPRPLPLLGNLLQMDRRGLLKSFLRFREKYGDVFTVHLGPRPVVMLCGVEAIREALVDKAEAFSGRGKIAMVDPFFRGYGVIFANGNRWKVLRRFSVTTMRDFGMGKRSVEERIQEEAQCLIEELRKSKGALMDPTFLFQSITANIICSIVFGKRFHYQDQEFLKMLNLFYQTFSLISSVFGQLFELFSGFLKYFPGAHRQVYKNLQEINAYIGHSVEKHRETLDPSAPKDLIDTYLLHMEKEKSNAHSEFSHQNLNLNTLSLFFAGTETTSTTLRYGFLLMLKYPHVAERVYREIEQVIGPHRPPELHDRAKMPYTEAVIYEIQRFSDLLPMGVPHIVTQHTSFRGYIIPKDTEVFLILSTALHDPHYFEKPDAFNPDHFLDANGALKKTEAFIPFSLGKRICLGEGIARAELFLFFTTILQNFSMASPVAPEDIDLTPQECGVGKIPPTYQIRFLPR
Experimental: (§1) According to an established protocol (Wagmann et al., [2016]), the final volume per reaction tube was 50 μl with a final 4F-MDMB-BINACA concentration of 25 μM and enzyme concentrations of 50 pmol/ml for CYP1A2, CYP2A6, CYP2B6, CYP2C8, CYP2C9, CYP2C19, CYP2D6, CYP2E1, CYP3A4, and CYP3A5, respectively, or 0.25 mg protein/ml for FMO3. Furthermore, the reaction mixture contained 90 mM phosphate buffer (pH 7.4), superoxide dismutase (200 U/ml), isocitrate (5 mM), MgCl2 (5 mM), isocitrate dehydrogenase (0.5 U/ml), and NADP^+ (1.2 mM). The phosphate buffer was replaced with Tris buffer (90 mM) for incubations with CYP2A6 and CYP2C9 according to the manufacturer's recommendation. All incubations were performed at 37°C for 30 min and terminated by adding 50 μl of ice-cold acetonitrile. Afterwards, the mixtures were centrifuged at 18,407 × g for 5 min, 70 μl of the supernatants was transferred into autosampler vials, and 1 μl was injected onto the LC-HRMS/MS system. Positive control incubations were performed with pHLM (1 mg microsomal protein/ml), and negative controls without enzyme were prepared to identify non-metabolically formed compounds. All incubations were done in duplicate.

FMO3 = biological target: T2, FMO3 (Homo sapiens, UniProt P31513); assay: Monooxygenases activity screening, FMO3; type: in vitro ADME; parameters: key: +, detected; –: −, not detected; settings: 25 μM 4F-MDMB-BINACA, 0.25 mg protein/ml, 30 min, 37°C, duplicate
T2 construct: purchased Corning; host or cells: baculovirus-transfected insect cell microsomes (Supersomes)
T2 sequence (P31513 1-532): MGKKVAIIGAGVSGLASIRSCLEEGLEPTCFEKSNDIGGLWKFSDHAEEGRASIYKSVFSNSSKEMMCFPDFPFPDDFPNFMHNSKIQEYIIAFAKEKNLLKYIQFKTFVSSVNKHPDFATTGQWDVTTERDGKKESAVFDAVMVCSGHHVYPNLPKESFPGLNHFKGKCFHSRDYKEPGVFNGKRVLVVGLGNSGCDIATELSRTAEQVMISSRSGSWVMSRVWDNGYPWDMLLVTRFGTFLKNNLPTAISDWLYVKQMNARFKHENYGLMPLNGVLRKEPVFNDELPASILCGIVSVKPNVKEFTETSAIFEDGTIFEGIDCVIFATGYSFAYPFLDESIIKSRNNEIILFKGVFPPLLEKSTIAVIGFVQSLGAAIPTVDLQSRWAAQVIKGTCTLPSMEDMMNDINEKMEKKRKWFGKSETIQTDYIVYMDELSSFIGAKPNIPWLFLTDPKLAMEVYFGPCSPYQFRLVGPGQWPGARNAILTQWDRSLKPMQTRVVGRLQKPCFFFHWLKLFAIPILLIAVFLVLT
Experimental: as §1

hCES1c = biological target: T3, hCES1c (Homo sapiens, UniProt P23141); assay: Esterases activity screening, hCES1c; type: in vitro ADME; parameters: key: +, detected; –: −, not detected; settings: 100 μM 4F-MDMB-BINACA, 0.2 mg protein/ml, duplicate
T3 construct: purchased Corning
T3 sequence (P23141 18-566 isoform P23141-3 limits assumed): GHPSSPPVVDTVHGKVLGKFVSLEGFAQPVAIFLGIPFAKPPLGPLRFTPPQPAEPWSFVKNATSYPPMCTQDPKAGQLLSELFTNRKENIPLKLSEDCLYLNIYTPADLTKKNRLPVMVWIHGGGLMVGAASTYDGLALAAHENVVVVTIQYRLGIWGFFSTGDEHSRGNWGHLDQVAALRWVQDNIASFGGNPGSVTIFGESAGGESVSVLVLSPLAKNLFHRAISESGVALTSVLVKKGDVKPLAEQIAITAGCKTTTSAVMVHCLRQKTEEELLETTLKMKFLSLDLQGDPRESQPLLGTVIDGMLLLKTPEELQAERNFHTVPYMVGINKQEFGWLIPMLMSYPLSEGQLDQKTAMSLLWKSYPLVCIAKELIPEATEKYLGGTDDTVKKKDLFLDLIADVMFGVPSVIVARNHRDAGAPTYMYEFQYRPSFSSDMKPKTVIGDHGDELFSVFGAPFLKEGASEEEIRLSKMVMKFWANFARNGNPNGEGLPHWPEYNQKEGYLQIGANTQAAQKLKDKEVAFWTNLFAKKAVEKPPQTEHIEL
Experimental: (§2) Experiments were performed in accordance with a previous study (Meyer et al., [2015]) with minor modifications. The final volume per reaction tube was 100 μl with a final 4F-MDMB-BINACA concentration of 100 μM and enzyme concentration of 0.2 mg protein/ml for hCES1b, hCES1c, and hCES2. Incubations with pHLM and pHLS9 (0.2 mg protein/ml, each) were performed in a similar manner. Additionally, incubations with human plasma (50 μl pooled human plasma, 40 μl phosphate buffer, and 10 μl substrate) were performed. The reactions were started by adding the enzyme-containing preparation and terminated with an equal volume of ice-cold acetonitrile containing diazepam-d5 (100 μM) as an internal standard. Only plasma incubations were terminated by addition of a three-fold volume of ice-cold acetonitrile. The reaction mixtures were centrifuged at 18,407 × g for 15 min, and then supernatants were transferred to autosampler vials, and 5 μl was injected onto the LC-HRMS/MS system. Negative control incubations without enzyme were prepared to identify non-metabolically formed compounds. All incubations were done in duplicate.

[1] = Esterases activity screening, pHLS9; type: in vitro ADME, human; parameters: key: +, detected; –: −, not detected; settings: 100 μM 4F-MDMB-BINACA, 0.2 mg protein/ml, duplicate
Experimental: as §2

[2] = plasma, human data for ephylone and 4F-PHP from Wagmann et al., [2019b]
[3] = urine, human data for ephylone and 4F-PHP from Wagmann et al., [2019b]

Row | SMILES | Absolute peak area, HepaRG [25 μM] (HepaRG cells; 24 h) | Absolute peak area, HepaRG [250 μM] (HepaRG cells; 24 h) | Detection of metabolite in incubation with CYP2B6 (CYP2B6) | Detection of metabolite in incubation with FMO3 (FMO3) | Detection of metabolite in incubation with hCES1c (hCES1c) | Detection of metabolite in incubation with pHLS9 [1] | Number of phase I metabolites detected, HepaRG [25 μM] (HepaRG cells; 25 μM, 24 h) | Number of phase II metabolites detected, HepaRG [25 μM] (HepaRG cells; 25 μM, 24 h) | Number of phase I metabolites detected, HepaRG [250 μM] (HepaRG cells; 250 μM, 24 h) | Number of phase II metabolites detected, HepaRG [250 μM] (HepaRG cells; 250 μM, 24 h) | Relative number of matches with the four most abundant signals in human plasma, HepaRG [25 μM] (HepaRG cells; [2]) | Relative number of matches with the four most abundant signals in human plasma, HepaRG [250 μM] (HepaRG cells; [2]) | Relative number of matches with the four most abundant signals in human urine, HepaRG [25 μM] (HepaRG cells; [3]) | Relative number of matches with the four most abundant signals in human urine, HepaRG [250 μM] (HepaRG cells; [3])
1 | O=C(O)c1nn(CCCCF)c2ccccc12 [MB1] | 3.34E+04 | 3.82E+06 | – | – | + | + |  |  |  |  |  |  |  | 
2 | COC(=O)[C@@H](NC(=O)c1nn(CCCCO)c2ccccc12)C(C)(C)C [MB11] | 9.30E+04 | 6.93E+06 | – | – |  |  |  |  |  |  |  |  |  | 
3 | CC(C)(C)C(NC(=O)c1nn(CCCCF)c2ccccc12)C(=O)O (stereo not shown) [MB8] | 5.16E+07 | 1.63E+09 | – | – | + | + |  |  |  |  |  |  |  | 
4 | COC(=O)C(NC(=O)c1nn(CCCCF)c2ccccc12)C(C)(C)C (stereo not shown) [4F-MDMB-BINACA, methyl 2-[1-(4-fluorobutyl)-1H-indazole-3-carbonyl]amino-3,3-dimethylbutanoate] | 1.28E+08 | 5.18E+08 |  |  |  |  | 7 | 2 | 12 | 3 | 50% | 75% | 50% | 100%
5 | COC(=O)[C@@H](NC(=O)c1nn(CCCCF)c2ccccc12)C(C)(C)CO [MB16] |  |  | – | – |  |  |  |  |  |  |  |  |  | 
6 | COC(=O)[C@@H](NC(=O)c1n[nH]c2ccccc12)C(C)(C)C [MB4] |  | 9.55E+06 | – | – |  |  |  |  |  |  |  |  |  | 
